Test system: Cell-based prion protein 5' UTR reporter, plate reader
Assay: prion protein 5' UTR mRNA inhibitors – cell-based, plate reader, cherry-picked samples, dose response (AID 504539)

SMILES	AC50 [nM]
CCOc1ccc(OCc2cccc(C(=O)N3CCOCC3)c2)cc1	573
CCN(CC)c1ccc(C(=C2C=CC(=[N+](CC)CC)C=C2)c2ccccc2)cc1	892
CC(=O)c1sc2c(c1OC(=O)c1ccc(Cl)cc1Cl)c(=O)n(-c1ccccc1)c(=S)n2-c1ccccc1	452
COc1ccccc1-c1nnc2n1N=C(c1ccc(O)c(O)c1)CS2	206
CCn1c(C)cc(C(=O)CN2C(=O)c3ccccc3S2(=O)=O)c1C	1260
COc1cc(C2c3cc4c(cc3C(OC3OC5COC(c6cccs6)OC5C(O)C3O)C3COC(=O)C23)OCO4)cc(OC)c1O (configuration not stated)	657
Cn1cccc1/C=C1\SC(=Nc2ccc(O)cc2)NC1=O	630
COc1ccc(C2=Nn3c(nnc3-c3ccccc3OC)SC2)cc1OC	395
Cc1c(C(=O)OC2CCCC2)[nH]c2c1C(=O)CC(c1ccco1)C2 (configuration not stated)	791
COc1ccc(-c2nsc3c(N4CCCCC4)ncnc23)cc1	1680
COc1cc(/C=N/O)ccc1OCc1ccc(C(=O)O)cc1	226
COc1ccc(OC)c(-c2nnc3n2N=C(c2ccc(OC)c(OC)c2)CS3)c1	261
Cc1ccc(/C=C2\SC(=S)N(CCCC(=O)NNC(=O)c3ccccc3O)C2=O)cc1	428
CC1=CC2OC3CC4OC(=O)C=CC=CC(C(C)O)OCC(O)C5(C)OC5C(=O)OCC2(CC1O)C4(C)C31CO1 (configuration not stated)	95
Cc1ccc(C(C)C)c(OCc2ccc(C(=O)N/N=C/c3cccc(O)c3O)cc2)c1	1510
Cc1cccc(C(=O)O/N=C(\N)c2ccccn2)c1	915
O=C(Nc1nccs1)c1cc2c(s1)CCCCC2	128
COc1cccc(C(=O)O/N=C(\N)c2ccccn2)c1	448
CCOc1ccccc1C1C2=C(COC2=O)Nc2cc3c(cc21)OCO3 (configuration not stated)	1050
O=C(NC1=NCCS1)C1COc2ccccc2O1 (configuration not stated)	296
Clc1ccc(-n2ncc3c(N4CCCCCC4)ncnc32)cc1	795
Cc1ccsc1/C=N/Nc1cccc(C(=O)O)c1	355

SMILES	AC50 [nM]
Cc1cc(C(=O)CN2C(=O)c3ccccc3S2(=O)=O)c(C)n1CC1CCCO1 (configuration not stated)	271
O=c1oc2ccccc2cc1-c1cn(-c2ccccc2)c(=S)[nH]1	776
COc1cc(/C=C2\COC/C(=C\c3cc(OC)c(OC)c(OC)c3)C2=O)cc(OC)c1OC	788
CC1CCCC=CC2CC(OC(=O)CN(C)C)CC2C(O)C=CC(=O)O1 (configuration not stated)	126
Nc1ncnc2c1ccn2[C@@H]1O[C@H](CO)[C@@H](O)[C@H]1O	164
COc1cccc2c1C(=O)c1c(O)c3c(c(O)c1C2=O)CC(O)(C(C)=O)CC3OC1CC(N(C)C)C(O)C(C)O1 (configuration not stated)	165
COC(=O)c1nn(-c2ccc3c(c2)CCN3C(C)=O)cc1O	300
CC1=C(N2CC2)C(=O)C(CO)=C(N2CC2)C1=O	154
COc1cc(-c2noc(C)c2-c2ccc(N(C)C)nc2)cc(OC)c1OC	358
COc1cc(C2c3cc4c(cc3CC3COC(=O)N32)OCO4)cc(OC)c1OC (configuration not stated)	861
CC(=NNC(=S)N(Cc1ccccn1)Cc1ccccn1)c1cnccn1	878
O=C(Nc1cccc(C(=O)O)c1)Nc1ccc2c(c1)OCO2	397
CC(=O)OC(C)(C)/C=C/C(=O)[C@](C)(O)[C@H]1[C@H](O)C[C@@]2(C)[C@@H]3CC=C4[C@H](C[C@H](O)C(=O)C4(C)C)[C@]3(C)C(=O)C[C@]12C	< 38
Cc1c(C(=O)OCCOC(C)C)[nH]c2c1C(=O)CC(c1ccco1)C2 (configuration not stated)	450
O=C(O)c1ccc(N/N=C/c2ccc3c(c2)OCO3)cc1	419
CN1CCN(c2ccc([N+](=O)[O-])c3no[n+]([O-])c23)CC1	2340
N#Cc1c(NC(=O)CSc2ncn[nH]2)sc2c1CCCC2	303
Cc1cc(C2=NNC(=NC3CC3)SC2)c(C)n1-c1ccccc1	< 38
C=Cc1cc(OC)c2c(c1)c(=O)oc1c2cc(OC)c2c(O)ccc(C3OC(C)C(O)C(C)(O)C3O)c21 (configuration not stated)	211
CCCCN1C=CC(=C2C(=O)c3ccccc3C2=O)C=C1	248
COc1ccc(/C=N/NC(=O)c2cc3c(OC)ccc(OC)c3[nH]2)cc1O	1340
CN(C(=O)OC(C)(C)C)c1ccc(-c2nc3ccccc3s2)cc1	< 38

SMILES	AC50 [nM]
CCN(CC)c1ccc(/C=N/N=C(N)N)c(O)c1	1410
Cc1nn(-c2ccccc2)c2c1CC(=O)Nc1ccccc1-2	1960
CCC(=O)Nc1cc2nn(-c3ccc(C)cc3)nc2cc1C	465
O=c1c2ccccc2cnn1-c1nc2ccccc2[nH]1	185
CCOc1ccc(/C=C2\SC(=S)N(CCC(=O)O)C2=O)cc1	277
O=C(O)c1cccc(N/N=C/c2cccs2)c1	349
C[C@]12CC[C@H](O)C[C@H]1CC[C@@H]1[C@@H]2C[C@@H](O)[C@]2(C)[C@@H](C3=CC(=O)OC3)CC[C@]12O	374
Cc1cc(C)c(S(=O)(=O)Nc2ccc3c4c(cccc24)CC3)c(C)c1	1900
O=C(/C=C/Nc1ccccc1Br)c1ccccn1	281
COc1cccc2c1C(=O)c1c(O)c3c(c(O)c1C2=O)C[C@@](O)(C(=O)CO)C[C@@H]3O[C@H]1C[C@H](N)[C@H](O)[C@H](C)O1	650
COCCCN=C1NN=C(c2cc(C)n(Cc3ccco3)c2C)CS1	1130
COc1cc2c(c(OC)c1OC)-c1ccc(O)cc1C(NC(C)=O)CC2 (configuration not stated)	128
CC1CCOC(=O)C=CC=CC(=O)OC2CC3OC4C5OC5(C)C(O)CC4(COC(=O)C1O)C2(C)C31CO1 (configuration not stated)	148
Cc1nn(-c2ccccc2Cl)c(Cl)c1/C=N/Nc1cccc(C(=O)O)c1	576
c1ccc(-c2noc(-c3ccc4ccccc4c3)n2)nc1	158
CN1CCc2c(sc(NC(=O)c3ccc([N+](=O)[O-])o3)c2C(N)=O)C1	972
O=C(CCCc1ccccc1)c1ccc2c(c1)OCCO2	344
Cc1ccc(C(=O)/C=C/Nc2ccccn2)cc1	233
O=C(CN1C(=O)c2ccccc2S1(=O)=O)c1ccc2c(c1)OCCCO2	39
COC(=O)Cc1ccc(NC(=O)c2ccc(C(C)(C)C)cc2)cc1	414
O=C(Nc1cc2ccccc2oc1=O)c1ccccc1	696
CC(C)Oc1ccc(C(=O)Nc2nc3ccccc3[nH]2)cc1	304

SMILES	AC50 [nM]
CC(C)(C)c1ccc(/C=N/Nc2cccc(C(=O)O)c2)cc1	2110
CSc1nc(-c2ccccc2)nc(C(Cl)Cl)n1	1270
O=C(Nc1ccc(-c2nc3cccnc3s2)cc1)C1CCCO1 (configuration not stated)	630
O=C(NCCc1ccccc1F)c1ccc2c(c1)OCCO2	140
CC(=O)OC1C(=O)OCC23CCC4(C)OC4C2OC2CC(OC(=O)C=CC=CC(=O)OCCC1C)C3(C)C21CO1 (configuration not stated)	< 38
CCOC(=O)COc1cccc2c(=O)n(CC(=O)NCc3ccc(F)cc3)ccc12	1540
COC(=O)CCn1nnc(-c2ccc(C(C)C)cc2)n1	314
N/C(=N\OC(=O)c1ccccc1Cl)c1ccccn1	558
CN1C2CCC1/C(=C/c1ccccn1)C(=O)/C2=C\c1ccccn1	773
Cc1c(C(=O)OCc2ccccc2)[nH]c2c1C(=O)CC(c1ccco1)C2 (configuration not stated)	388
N#CC1=C(N)OC2=C(CCc3ccccc32)C1c1ccccc1 (configuration not stated)	945
COc1cc(C2C(C#N)=C(N)Oc3cc(N)ccc32)cc(OC)c1OC (configuration not stated)	614
CCOc1ccc(NC(=O)Nc2cccc(C(=O)O)c2)cc1	136
Cc1ccc(C(=O)CN2C(=O)c3ccccc3S2(=O)=O)cc1	823
Cc1ccc(C(=O)O/N=C(\N)c2ccccn2)c(C)c1	46
CC(=O)OC1C2(CC3N4C(=O)C5(CO)SSC4(CC31O)C(=O)N5C)OC(C)C(C)(C)C2=O (configuration not stated)	295
CC(C)CCCCCCCCCCCCC(=O)NCC(=O)NC1C(C)OC(Nc2ncnc3nc[nH]c23)C(O)C1O (configuration not stated)	73
CC/C=C/CC(=O)N[C@@H](c1ccccc1)[C@@H](O)C(=O)O[C@H]1C[C@@]2(O)[C@@H](OC(=O)c3ccccc3)C3[C@](C)(C(=O)[C@H](OC(C)=O)C(=C1C)C2(C)C)[C@@H](O)C[C@H]1OC[C@@]31OC(C)=O (some centres not stated)	368
COc1cccc(N2CCN(C(=O)c3ccc(CS(=O)c4ccccc4C)o3)CC2)c1 (configuration not stated)	1380
O=C(OCC(F)(F)F)c1cccc(COc2ccc3ccccc3c2)c1	376
CCc1ccn2cc(-c3ccc4c(c3)OCO4)nc2c1	384
Cc1ccc(C(=O)N/N=C/c2ccc([N+](=O)[O-])s2)cc1	1010

SMILES	AC50 [nM]
C[C@]12CC[C@H](O)C[C@H]1CC[C@@H]1[C@@H]2CC[C@]2(C)[C@@H](C3=CC(=O)OC3)CC[C@]12O	235
COc1ccccc1C(=O)Nc1nc2ccccc2[nH]1	178
Cc1ccc2nc(-c3ccccc3)cn2c1	210
CCc1ccc(-c2cc(C(=O)Nn3cnnc3)c3ccccc3n2)cc1	510
COc1cccc2c1C(=O)c1c(O)c3c(c(O)c1C2=O)CC(O)(C(=O)CO)CC3OC1CC(N(C)C)C(O)C(C)O1 (configuration not stated)	130
CCC(C)(O)C(=O)OC1C(=O)OC2CC3C(C)=CC(=O)C(O)C3(C)C3C4(O)OCC23C1C(C)C4O (configuration not stated)	178
C=CCn1c(C)cc(C(=O)CN2C(=O)c3ccccc3S2(=O)=O)c1C	249
C=CCN=C1NN=C(c2ccc3c(c2)OCCO3)CS1	411
CC1=CC2OC3CC4OC(=O)C=CC=CC(C(C)O)OCC(O)C(C)CC(=O)OCC2(CC1O)C4(C)C31CO1 (configuration not stated)	< 38
Cc1nn(-c2ccccc2Cl)c(Cl)c1/C=N/Nc1nc2ccccc2s1	< 38
NC(=O)c1cc2c3ccccc3ccn2c1-c1ccccc1	635
Cc1ccccc1OCC(=O)Nc1cccc(C(=O)O)c1	422
COc1cc(SC)ccc1C(=O)Nc1nc2ccccc2[nH]1	< 38
CCN(CC)c1ccc2c(cc1=O)[C@@H](NC)CCc1cc(OC)c(OC)c(OC)c1-2	634
CCOc1ccc(S(=O)(=O)Nc2cc(OC)ccc2OC)cc1	873
Cc1nn(C(C)(C)C)c(C)c1/C=N/OC(=O)Nc1ccc(Cl)cc1	< 38
Cc1ccc(-c2nnc(SCC(=O)Nc3ccccc3F)o2)cc1	284
C[C@H]1CCC/C=C/[C@@H]2C[C@H](O)C[C@H]2[C@@H](O)/C=C/C(=O)O1	< 38
Cc1c(C(=O)N/N=C/c2ccc(Cl)cc2)[nH]c2ccc(Cl)cc12	1090
